Assay results reported in patent US4904667A, “1H-1,2,4-thiadiazolo(3,4-b)quinazolin-5-one-2,2-dioxides, and a method for increasing the cardiac output of a mammal with them” (Ortho Pharmaceutical Corporation, priority 1989, dated 1990).
Read-outs that look alike come from different tables or passages of the source.

Experiments:
[1] = tested on: dog tracheal smooth muscle; experiment: Procedure II: Inhibition of calcium dependent smooth muscle contraction (KCl-challenged dog tracheal rings); conditions: Canis lupus familiaris, 50 mM KCl contraction, dog trachea
Protocol: INHIBITION OF CALCIUM DEPENDENT SMOOTH MUSCLE CONTRACTION
Farley, J. M. and Miles, P. R. The Sources of Calcium for Acetylcholine-Induced Contractions of Dog Tracheal Smooth Muscle. J. Pharmacol. Exp. Ther. 207: 340-346,l 1978.
Canines, guinea pigs and rabbits
Trachea from dogs killed by excess KCl injection are stored overnight at 4° C. in oxygenated Krebs-Henseleit buffer. Tracheal rings, one cartilage segment wide (5-10 mm), are cut starting from the bronchial end. After cutting the cartilage, the trachealis muscle tissue is suspended in oxygenated Krebs-Henseleit buffer at 37° C. in a 25 ml tissue bath. After a 60 minutes equilibration period, the tissues are challenged with 10 μM carbachol. After 5 minutes the tissues are rinsed and allowed to rest 50 minutes. The tissues are then challenged with 50 mM KCl and, after 30 minutes, the contractions are quantitated. The tissues are then rinsed and reequilibrated for 50 minutes. Test compounds are then added for 10 minutes, and the tissue is rechallenged with 50 mM KCl. After 30 minutes, the contraction is recorded and used to determine the % inhibition of control.
The percent inhibition of smooth muscle contraction is calculated from response data before and after drug treatment. [formula]

[2] = target: cyclic nucleotide phosphodiesterase fraction III; experiment: Procedure I: Cyclic Nucleotide Phosphodiesterase Assay; format: biochemical
Dog = experiment: Procedure III: Acute In Vivo Cardiotonic Evaluation (cardiac force in anesthetized dogs); conditions: for Procedure III % Change CF (cardiac force): dose 1.9 mpk, i.v., anesthetized dog, vs pretreatment control
Protocol: Acute In Vivo Cardiotonic Evaluation
Cardiotonic Activity of Amrinone-Win 40680. Alousi, A. A., Farah, A. I., Lester, G. Y. and Opalka, C. J. Circ. Res. 45:666, 1979.
Adult mongrel dogs are anesthetized with sodium pentobarbital and artifically respired. Arterial pressure is recorded via a femoral artery and the pressure pulse is used to trigger a cardiotachometer for heart rate. Left ventricular pressure is measured with a Millar catheter and dP/dt is derived. Cardiac output is determined by measuring ascending aortic blood flow with an electromagnetic flow probe and myocardial contractile force is measured with a Walton Brodie strain gauge sutured to the right ventricle. Lead II EKG is also recorded.
A standard dose of dopamine or dobutamine is administered to assess myocardial responsiveness.
Test compounds are administered by i.v. infusion or bolus administration and the effects on cardiovascular parameters are determined.
Dose related effects of the test compound on blood pressure, heart rate, dP/dt max. (dp/dt represents the rate at which blood pressure rises), cardiac force, and cardiac output are compared to pretreatment control values, expressed as a % change and rated for activity. Statistical evaluations are made using the appropriate parametric test against a vehicle control.

[3] = concentration inhibiting 50% of cyclic nucleotide phosphodiesterase activity, cyclic AMP substrate, pH 7.4, read-out: Procedure I IC50

Row | Structure (SMILES) | IC50 [2, 3] | IC50 ([2]; fraction III, read-out: IC50 versus cyclic nucleotide phosphodiesterase fraction III) | inhibition at 10 µM [1] | inhibition at 2 µM [1] | Procedure III % Change CF (cardiac force) (Dog) | cardiac force increased (Dog; dog, intravenously at 1.9 mg/kg)
1 | O=c1c2cc([N+](=O)[O-])ccc2nc2n1CS(=O)(=O)N2 [Example 2, 7-Nitro-1H-1,2,4-thiadiazolo[3,4-b]quinazolin-5-one-2,2-dioxide] | – | – | 9% | – | – | –
2 | COc1ccc2nc3n(c(=O)c2c1OC)CS(=O)(=O)N3 [Example 4, 6,7-Dimethoxy-1H-1,2,4-thiadiazolo[3,4-b]quinazolin-5-one-2,2-dioxide] | – | – | – | 43% | 22% | –
3 | O=c1c2cc(Cl)c(Cl)cc2nc2n1CS(=O)(=O)N2 [Example 5, 7,8-Dichloro-1H-1,2,4-thiadiazolo[3,4-b]quinazolin-5-one-2,2-dioxide] | – | – | – | 11% | – | –
4 | CN(C(=O)CCCOc1ccc2nc3n(c(=O)c2c1)CS(=O)(=O)N3)C1CCCCC1 [Example 9, 7-(N-Cyclohexyl-N-methyl-4-amino-4-oxobutyloxy)-1H-1,2,4-thiadiazolo[3,4-b]quinazolin-5-one-2,2-dioxide] | 13 µM | 13 µM | – | – | 37% | 37%

Now from value to compound, other results behind:

Row | IC50 [2, 3] | IC50 ([2]; fraction III, read-out: IC50 versus cyclic nucleotide phosphodiesterase fraction III) | Structure (SMILES) | inhibition at 10 µM [1] | inhibition at 2 µM [1] | Procedure III % Change CF (cardiac force) (Dog) | cardiac force increased (Dog; dog, intravenously at 1.9 mg/kg)
5 | 35 µM | – | COc1cc2nc3n(c(=O)c2cc1OC)CS(=O)(=O)N3 [Example 3, 7,8-Dimethoxy-1H-1,2,4-thiadiazolo[3,4-b]quinazolin-5-one-2,2-dioxide] | – | 13% | 8% | –
6 | 70 µM | – | O=c1c2cc(Cl)ccc2nc2n1CS(=O)(=O)N2 [Example 6, 7-Chloro-1H-1,2,4-thiadiazolo[3,4-b]quinazolin-5-one-2,2-dioxide] | 18% | – | – | –
7 | 150 µM | – | O=c1c2ccc(Cl)cc2nc2n1CS(=O)(=O)N2 [Example 7, 8-Chloro-1H-1,2,4-thiadiazolo[3,4-b]quinazolin-5-one-2,2-dioxide] | 31% | – | – | –
8 | 150 µM | – | O=c1c2ccccc2nc2n1CS(=O)(=O)N2 [Example 8, 1H-1,2,4-Thiadiazolo[3,4-b]quinazolin-5-one-2,2-dioxide] | 20% | – | – | –
